Measurements: US20240059685A1, “PIEZO1 AGONISTS FOR THE PROMOTION OF BONE FORMATION” (BIOVENTURES, LLC, priority 2019, published 2024)
“Also recorded” adds a separate entry of the source.

Assays:
Piezo1 = biological target: T1, Piezo1 (Mus musculus, UniProt E2JF22); assay: Activation of Piezo1 in MLO-Y4 cells, overall conclusion from gene expression and calcium influx; type: cell-based, murine
T1 construct: To identify Piezo1 stimulators, we treated MLO-Y4 cells with compounds; endogenous in cells; host or cells: MLO-Y4 (murine osteocyte-like cell line); control sh-Luc cells, with sh-Piezo1 knock-down cells as the specificity control
Procedure: To identify Piezo1 stimulators, we treated MLO-Y4 cells with compounds Yoda1, YW-3-159, W-3-163, W-3-168-1, W-3-168-2, W-3-170, W-3-173-1, W-3-173-2, and YW-3-174. Gene expression of Wnt1, Ptgs2, and Tnfrsf11b was measured to determine the activation of Piezo1. In addition, intracellular calcium concentration was measured to determine the activity of Piezo1 channel. […] Yoda1 was used as a positive control in all experiments.

[1] = system: osteocyte-enriched cortical bone; assay: Wnt1 expression in tibia after one Yoda1 injection; type: in vivo; settings: 4-month-old female C57BL/6J mice, one injection 5 μmol/kg intraperitoneally, tibiae 4 hours later
Procedure: To quantify cancellous bone formation, we injected mice with calcein (20 mg/kg body weight) intraperitoneally 7 and 3 days before harvest. To quantify periosteal and endocortical bone formation, we injected mice with calcein (20 mg/kg body weight) and Alizarin Red (20 mg/kg body weight) 10 and 3 days before harvest. For gene expression, we injected Yoda1 into 4-month-old female C57BL/6J mice one time and harvested tibiae 4 hours later for RNA extraction. For bone mass evaluation, we injected Yoda1 into 4-month-old female C57BL/6J mice 5 consecutive days per week for 2 weeks (day 1-5 and day 8-12) and harvested the mice at day 15 for analysis. […]
Quantitative PCR. […] We performed quantitative RT-PCR using the following Taqman assays from Applied Biosystems: Piezo1 (Mm01241549_m1); Piezo2 (Mm01265861_m1); Ptgs2 (Mm00478374_m1); Cyr61 (Mm00487498_m1); Wnt1 (Mm01300-555_g1); Yap1 (Mm011432-63_m1); Taz (Mm01289583_m1); Tnfsf11 Mm00441906_m1; Tnfrsf11b (Mm00435452_m1); Sost (Mm00470479_m1); and ribosomal protein S2 (Mrps2) (Mm00475529_m1). We calculated relative mRNA amounts using the ΔCt method (Livak and Schmittgen, 2001). […] We obtained two custom Taqman assays from Applied Biosystems for quantifying Piezo1 gene deletion efficiency: one specific for sequences between the loxP sites and the other specific for sequences downstream from the 3′ loxP site.

C57BL/6J mice = assay: Serum osteocalcin and CTX ELISA after 2 weeks of administration; type: in vivo; settings: 4-month-old female C57BL/6J mice, 5 μmol/kg intraperitoneally, 5 days per week for 2 weeks
Procedure: To quantify cancellous bone formation, we injected mice with calcein (20 mg/kg body weight) intraperitoneally 7 and 3 days before harvest. To quantify periosteal and endocortical bone formation, we injected mice with calcein (20 mg/kg body weight) and Alizarin Red (20 mg/kg body weight) 10 and 3 days before harvest. For gene expression, we injected Yoda1 into 4-month-old female C57BL/6J mice one time and harvested tibiae 4 hours later for RNA extraction. For bone mass evaluation, we injected Yoda1 into 4-month-old female C57BL/6J mice 5 consecutive days per week for 2 weeks (day 1-5 and day 8-12) and harvested the mice at day 15 for analysis. Yoda1 (Sigma, St. Louis, MO) was dissolved in DMSO at 40 mM as a stock, diluted in 5% ethanol, and injected intraperitoneally at 5 μmol/kg body weight. Mice were rank-ordered by body weight and then assigned to Veh or Yoda1 groups to give identical group means. All investigators involved in data collection were blinded as to the genotype and group of the mice.
Osteocalcin and CTX ELISA. Circulating osteocalcin and CTX in serum was measured using a mouse Osteocalcin enzyme immunoassay kit (Thermo Fisher) and RatLaps™ (CTX-I) EIA kit (Immunodiagnostic Systems, Boldon, UK) respectively according to the manual provided by manufacturers. Blood was collected by retro-orbital bleeding into 1.7 mL microcentrifuge tubes. […]

T1 sequence (E2JF22 whole entry): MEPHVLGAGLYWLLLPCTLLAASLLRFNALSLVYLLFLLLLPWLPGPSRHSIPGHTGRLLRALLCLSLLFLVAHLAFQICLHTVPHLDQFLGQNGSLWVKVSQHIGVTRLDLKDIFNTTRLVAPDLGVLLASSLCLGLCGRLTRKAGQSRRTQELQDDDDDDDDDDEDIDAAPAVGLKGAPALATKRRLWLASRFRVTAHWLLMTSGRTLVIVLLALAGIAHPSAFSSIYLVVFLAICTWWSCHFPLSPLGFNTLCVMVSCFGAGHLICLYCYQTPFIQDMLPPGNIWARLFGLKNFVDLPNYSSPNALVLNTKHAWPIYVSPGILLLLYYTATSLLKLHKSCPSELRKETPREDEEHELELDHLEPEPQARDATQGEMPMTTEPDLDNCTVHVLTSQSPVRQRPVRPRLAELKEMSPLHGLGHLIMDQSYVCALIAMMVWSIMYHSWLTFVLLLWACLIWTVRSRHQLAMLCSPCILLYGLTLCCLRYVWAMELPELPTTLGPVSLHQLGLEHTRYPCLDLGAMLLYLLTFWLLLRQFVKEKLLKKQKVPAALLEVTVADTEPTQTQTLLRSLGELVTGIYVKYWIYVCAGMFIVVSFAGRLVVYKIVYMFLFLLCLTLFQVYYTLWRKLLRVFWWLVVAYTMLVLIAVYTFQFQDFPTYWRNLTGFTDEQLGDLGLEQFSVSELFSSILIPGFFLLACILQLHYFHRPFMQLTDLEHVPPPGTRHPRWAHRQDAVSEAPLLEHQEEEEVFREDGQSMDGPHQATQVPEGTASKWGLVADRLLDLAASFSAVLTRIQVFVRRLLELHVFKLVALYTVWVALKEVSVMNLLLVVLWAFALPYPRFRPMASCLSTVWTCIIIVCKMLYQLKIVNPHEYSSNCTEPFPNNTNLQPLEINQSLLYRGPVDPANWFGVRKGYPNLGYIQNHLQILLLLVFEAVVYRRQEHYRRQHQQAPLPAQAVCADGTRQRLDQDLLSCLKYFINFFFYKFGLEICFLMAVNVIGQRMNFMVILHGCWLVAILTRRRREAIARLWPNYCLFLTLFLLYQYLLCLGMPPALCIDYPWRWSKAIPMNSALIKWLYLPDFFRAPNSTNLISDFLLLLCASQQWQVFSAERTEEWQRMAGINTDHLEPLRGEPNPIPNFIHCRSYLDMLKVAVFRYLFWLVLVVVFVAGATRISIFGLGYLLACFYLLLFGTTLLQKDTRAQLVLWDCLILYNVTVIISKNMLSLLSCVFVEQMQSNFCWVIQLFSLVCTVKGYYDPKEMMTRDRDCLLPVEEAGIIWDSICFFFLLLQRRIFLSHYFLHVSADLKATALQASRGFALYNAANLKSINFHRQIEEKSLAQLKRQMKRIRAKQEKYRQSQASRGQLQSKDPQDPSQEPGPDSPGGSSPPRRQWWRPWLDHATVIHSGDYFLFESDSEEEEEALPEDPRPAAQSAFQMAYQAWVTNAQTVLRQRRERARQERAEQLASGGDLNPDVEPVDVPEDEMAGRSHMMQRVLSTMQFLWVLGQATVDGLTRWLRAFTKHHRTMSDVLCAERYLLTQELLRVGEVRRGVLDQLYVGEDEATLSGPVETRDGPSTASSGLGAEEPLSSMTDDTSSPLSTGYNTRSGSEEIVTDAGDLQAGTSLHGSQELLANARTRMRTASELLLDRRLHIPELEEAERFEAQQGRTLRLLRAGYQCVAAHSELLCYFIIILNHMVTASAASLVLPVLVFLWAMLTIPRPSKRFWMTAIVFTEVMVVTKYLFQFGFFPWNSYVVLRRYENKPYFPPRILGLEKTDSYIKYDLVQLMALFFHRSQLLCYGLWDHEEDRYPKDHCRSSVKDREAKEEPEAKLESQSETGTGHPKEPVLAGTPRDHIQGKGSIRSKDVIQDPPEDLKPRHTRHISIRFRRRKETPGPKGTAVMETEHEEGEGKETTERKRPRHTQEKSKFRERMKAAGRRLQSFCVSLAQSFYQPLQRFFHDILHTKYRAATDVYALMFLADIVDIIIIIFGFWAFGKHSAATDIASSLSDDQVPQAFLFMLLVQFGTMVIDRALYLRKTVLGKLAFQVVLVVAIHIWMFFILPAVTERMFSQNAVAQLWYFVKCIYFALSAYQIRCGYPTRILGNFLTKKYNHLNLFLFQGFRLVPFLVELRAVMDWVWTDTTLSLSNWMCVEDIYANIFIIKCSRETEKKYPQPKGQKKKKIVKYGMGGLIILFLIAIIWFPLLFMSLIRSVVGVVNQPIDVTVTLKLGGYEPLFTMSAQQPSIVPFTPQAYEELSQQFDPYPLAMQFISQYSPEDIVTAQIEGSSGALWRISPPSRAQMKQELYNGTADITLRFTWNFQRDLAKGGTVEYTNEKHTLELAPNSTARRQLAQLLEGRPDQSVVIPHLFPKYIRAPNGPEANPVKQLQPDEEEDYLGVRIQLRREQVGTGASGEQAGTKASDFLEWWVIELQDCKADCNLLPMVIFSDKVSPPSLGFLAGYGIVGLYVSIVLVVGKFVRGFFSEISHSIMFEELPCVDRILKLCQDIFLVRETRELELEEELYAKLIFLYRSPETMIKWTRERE

activity in activating Piezo1 compared to Yoda1 (Piezo1; MLO-Y4 cells in vitro) | Structure (SMILES) | Piezo1 agonist activity (conclusion in words) (Piezo1; MLO-Y4 cells) | Wnt1 expression in osteocyte-enriched cortical bone in vivo [1] | serum levels of CTX, a bone resorption marker (C57BL/6J mice) | serum levels of osteocalcin, a bone formation marker (C57BL/6J mice)
comparable or superior activity | Fc1ccc(Cl)c(CSc2nnc(-c3cnccn3)s2)c1Cl [YW-3-170] | potent agonists for Piezo1; also recorded: potent and specific Piezo1 agonists |  |  | 
 | Clc1cccc(Cl)c1CSc1nnc(-c2cnccn2)s1 [Yoda1] |  | increased | did not observe changes | increased
